Reference: PubChem BioAssay AID256 (DTP/NCI, 2004)
Several values for one entry are separate records, joined by “and”; a condition that tells them apart may be missing. Equal values may be shown once. Inconclusive results and toxic doses are left out.

Test system: CD2F1 mice, L1210 leukemia ip, survival T/C
Assay: NCI In Vivo Anticancer Drug Screen. Data for tumor model L1210 Leukemia (intraperitoneal) in CD2F1 (CDF1) mice
Details: higher = longer survival
Procedure, shortened: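 Vehicle-treated tumor-bearing mice served as controls (C) for compound-treated mice (T). Reported figure is T divided by C.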

[1] = endpoint: mean survival time, dose: 50.0 mg/kg/injection, schedule: Q04DX002 (ip), vehicle: saline with Tween-80
[2] = endpoint: mean survival time, dose: 100.0 mg/kg/injection, schedule: Q04DX002 (ip), vehicle: saline with Tween-80
[3] = endpoint: mean survival time, dose: 100.0 mg/kg/injection, schedule: Q01DX001 (ip), vehicle: saline with Tween-80
[4] = endpoint: mean survival time, dose: 100.0 mg/kg/injection, schedule: Q04DX003 (ip), vehicle: saline with Tween-80
[5] = endpoint: mean survival time, dose: 200.0 mg/kg/injection, schedule: Q01DX001 (ip), vehicle: saline with Tween-80
[6] = endpoint: mean survival time, dose: 200.0 mg/kg/injection, schedule: Q04DX003 (ip), vehicle: saline with Tween-80
[7] = endpoint: mean survival time, dose: 400.0 mg/kg/injection, schedule: Q01DX001 (ip), vehicle: saline with Tween-80
[8] = endpoint: mean survival time, dose: 400.0 mg/kg/injection, schedule: Q04DX003 (ip), vehicle: saline with Tween-80
[9] = endpoint: mean survival time, dose: 25.0 mg/kg/injection, schedule: Q01DX009 (ip), vehicle: saline with Tween-80
[10] = endpoint: mean survival time, dose: 50.0 mg/kg/injection, schedule: Q01DX009 (ip), vehicle: saline with Tween-80
[11] = endpoint: mean survival time, dose: 100.0 mg/kg/injection, schedule: Q01DX009 (ip), vehicle: saline with Tween-80
[12] = endpoint: mean survival time, dose: 100.0 mg/kg/injection, schedule: Q04DX003 (ip), vehicle: saline
[13] = endpoint: mean survival time, dose: 200.0 mg/kg/injection, schedule: Q04DX003 (ip), vehicle: saline

CC(=Nc1ccccc1)C1=C(O)C(Cc2ccc(O)c(O)c2)NC1=O (stereo not given)
T/C [1]: 103 % of control | T/C [2]: 103 % of control | T/C (endpoint: mean survival time, dose: 200.0 mg/kg/injection, schedule: Q04DX002 (ip), vehicle: saline with Tween-80): 100 % of control

Cn1nnc(-c2nn[nH]n2)n1
T/C [3]: 105 % of control | T/C [4]: 106 % of control | T/C [5]: 104 % of control | T/C [6]: 98 % of control | T/C [7]: 94 % of control | T/C [8]: 97 % of control

O=c1ssc(=Nc2ccccc2)n1-c1ccccc1
T/C (endpoint: mean survival time, dose: 12.5 mg/kg/injection, schedule: Q01DX009 (ip), vehicle: Klucel (hydroxypropylcellulose) (HPC)): 103 % of control | T/C (endpoint: mean survival time, dose: 25.0 mg/kg/injection, schedule: Q01DX009 (ip), vehicle: Klucel (hydroxypropylcellulose) (HPC)): 93 % of control and 102 % of control | T/C (endpoint: mean survival time, dose: 50.0 mg/kg/injection, schedule: Q01DX009 (ip), vehicle: Klucel (hydroxypropylcellulose) (HPC)): 98 % of control and 110 % of control | T/C (endpoint: mean survival time, dose: 100.0 mg/kg/injection, schedule: Q01DX009 (ip), vehicle: Klucel (hydroxypropylcellulose) (HPC)): 103 % of control and 108 % of control | T/C (endpoint: mean survival time, dose: 200.0 mg/kg/injection, schedule: Q01DX009 (ip), vehicle: Klucel (hydroxypropylcellulose) (HPC)): 98 % of control and 102 % of control | T/C (endpoint: mean survival time, dose: 400.0 mg/kg/injection, schedule: Q01DX009 (ip), vehicle: Klucel (hydroxypropylcellulose) (HPC)): 117 % of control and 104 % of control

COc1cc2c(c(OC)c1OC)-c1ccc(OC)c(=O)cc1[C@@H](NC(C)=O)CC2
T/C (endpoint: mean survival time, dose: 0.02 mg/kg/injection, schedule: Q01DX009 (ip), vehicle: saline): 117 % of control | T/C (endpoint: mean survival time, dose: 0.03 mg/kg/injection, schedule: Q01DX009 (ip), vehicle: water): 93 % of control | T/C (endpoint: mean survival time, dose: 0.04 mg/kg/injection, schedule: Q01DX009 (ip), vehicle: saline): 103 % of control | T/C (endpoint: mean survival time, dose: 0.05 mg/kg/injection, schedule: Q01DX009 (ip), vehicle: saline): 102 % of control | T/C (endpoint: mean survival time, dose: 0.06 mg/kg/injection, schedule: Q01DX005 (ip), vehicle: Klucel (hydroxypropylcellulose) (HPC)): 103 % of control | T/C (endpoint: mean survival time, dose: 0.08 mg/kg/injection, schedule: Q01DX009 (ip), vehicle: saline): 105 % of control | T/C (endpoint: mean survival time, dose: 0.1 mg/kg/injection, schedule: Q01DX009 (ip), vehicle: saline): 100 % of control | T/C (endpoint: mean survival time, dose: 0.13 mg/kg/injection, schedule: Q01DX005 (ip), vehicle: Klucel (hydroxypropylcellulose) (HPC)): 97 % of control | T/C (endpoint: mean survival time, dose: 0.13 mg/kg/injection, schedule: Q01DX005 (ip), vehicle: water): 117 % of control | T/C (endpoint: mean survival time, dose: 0.16 mg/kg/injection, schedule: Q01DX009 (ip), vehicle: saline): 111 % of control | T/C (endpoint: mean survival time, dose: 0.19 mg/kg/injection, schedule: Q01DX009 (ip), vehicle: saline): 104 % of control | T/C (endpoint: mean survival time, dose: 0.25 mg/kg/injection, schedule: Q01DX005 (ip), vehicle: Klucel (hydroxypropylcellulose) (HPC)): 114 % of control | T/C (endpoint: mean survival time, dose: 0.25 mg/kg/injection, schedule: Q01DX005 (ip), vehicle: water): 122 % of control | T/C (endpoint: mean survival time, dose: 0.35 mg/kg/injection, schedule: Q04DX004 (ip), vehicle: saline): 111 % of control | T/C (endpoint: mean survival time, dose: 0.38 mg/kg/injection, schedule: Q01DX009 (ip), vehicle: saline): 111 % of control | T/C (endpoint: mean survival time, dose: 0.5 mg/kg/injection, schedule: Q01DX005 (ip), vehicle: Klucel (hydroxypropylcellulose) (HPC)): 123 % of control | T/C (endpoint: mean survival time, dose: 0.54 mg/kg/injection, schedule: Q04DX004 (ip), vehicle: saline): 112 % of control | T/C (endpoint: mean survival time, dose: 0.75 mg/kg/injection, schedule: Q01DX009 (ip), vehicle: saline): 118 % of control and 111 % of control | T/C (endpoint: mean survival time, dose: 0.8 mg/kg/injection, schedule: Q04DX004 (ip), vehicle: saline): 115 % of control | T/C (endpoint: mean survival time, dose: 1.2 mg/kg/injection, schedule: Q04DX004 (ip), vehicle: saline): 122 % of control | T/C (endpoint: median survival time, dose: 0.02 mg/kg/injection, schedule: Q01DX009 (ip), vehicle: saline): 88 % of control and 100 % of control | T/C (endpoint: median survival time, dose: 0.04 mg/kg/injection, schedule: Q01DX009 (ip), vehicle: saline): 100 % of control | T/C (endpoint: median survival time, dose: 0.08 mg/kg/injection, schedule: Q01DX009 (ip), vehicle: saline): 100 % of control and 105 % of control | T/C (endpoint: median survival time, dose: 0.13 mg/kg/injection, schedule: Q01DX005 (ip), vehicle: saline): 111 % of control | T/C (endpoint: median survival time, dose: 0.16 mg/kg/injection, schedule: Q01DX009 (ip), vehicle: saline): 114 % of control and 111 % of control | T/C (endpoint: median survival time, dose: 0.25 mg/kg/injection, schedule: Q01DX005 (ip), vehicle: saline): 123 % of control | T/C (endpoint: median survival time, dose: 1.0 mg/kg/injection, schedule: Q01DX005 (ip), vehicle: saline): 164 % of control | T/C (endpoint: median survival time, dose: 2.0 mg/kg/injection, schedule: Q01DX005 (ip), vehicle: saline): 111 % of control

COc1cc2c(cc1OC)-c1cc3cc(OC)c(OC)cc3c(C)[n+]1CC2 (tested in a mixture with another compound)
T/C (endpoint: mean survival time, dose: 100.0 mg/kg/injection, schedule: Q04DX003 (ip), vehicle: saline sonified): 103 % of control

Clc1ccc(N=C(Nc2ccc(Cl)cc2)c2ccccc2)cc1
T/C [4]: 104 % of control | T/C [6]: 110 % of control | T/C [8]: 98 % of control

COc1ccc(NC(=O)Oc2ccc(C(C)(C)C)cc2)cc1
T/C [9]: 93 % of control | T/C (endpoint: mean survival time, dose: 25.0 mg/kg/injection, schedule: Q04DX002 (ip), vehicle: saline with Tween-80): 104 % of control | T/C [10]: 97 % of control | T/C [1]: 117 % of control | T/C [11]: 97 % of control | T/C [2]: 87 % of control and 93 % of control

COc1cc(C=O)ccc1OCc1ccccc1
T/C [4]: 106 % of control | T/C [6]: 95 % of control | T/C [8]: 113 % of control

OC1C=CC(O)C1 (stereo not given)
T/C (endpoint: mean survival time, dose: 75.0 mg/kg/injection, schedule: Q01DX001 (ip), vehicle: saline): 97 % of control | T/C (endpoint: mean survival time, dose: 150.0 mg/kg/injection, schedule: Q01DX001 (ip), vehicle: saline): 101 % of control

CCOC(=O)Nc1cccc(C(F)(F)F)c1
T/C (endpoint: mean survival time, dose: 100.0 mg/kg/injection, schedule: Q01DX009 (ip), vehicle: other): 97 % of control | T/C (endpoint: mean survival time, dose: 200.0 mg/kg/injection, schedule: Q01DX009 (ip), vehicle: other): 101 % of control | T/C (endpoint: mean survival time, dose: 400.0 mg/kg/injection, schedule: Q01DX009 (ip), vehicle: other): 107 % of control

CCCCC(CC)COP(=O)(CC(CC)CCCC)OCC(CC)CCCC (stereo not given)
T/C [12]: 86 % of control | T/C [13]: 94 % of control

Cc1nc(N)[nH]c(=O)c1CCCNc1cccnc1
T/C [3]: 96 % of control | T/C [5]: 92 % of control | T/C [7]: 92 % of control

Cn1c(=O)c2c(ncn2C(C=O)OC(C=O)CO)n(C)c1=O (stereo not given)
T/C (endpoint: mean survival time, dose: 12.5 mg/kg/injection, schedule: Q01DX005 (ip), vehicle: water): 101 % of control | T/C (endpoint: mean survival time, dose: 25.0 mg/kg/injection, schedule: Q01DX005 (ip), vehicle: water): 104 % of control | T/C (endpoint: mean survival time, dose: 50.0 mg/kg/injection, schedule: Q01DX005 (ip), vehicle: water): 110 % of control | T/C (endpoint: mean survival time, dose: 100.0 mg/kg/injection, schedule: Q01DX005 (ip), vehicle: water): 112 % of control

C=C(Br)COCC
T/C [4]: 89 % of control

O=[N+]([O-])c1ccc(N/N=C(\CBr)c2ccccc2)c([N+](=O)[O-])c1
T/C [3]: 101 % of control | T/C [5]: 92 % of control | T/C [7]: 93 % of control

COC(=O)C(N)CSSCC(N)C(=O)OC (stereo not given)
T/C (endpoint: mean survival time, dose: 100.0 mg/kg/injection, schedule: Q01DX001 (ip), vehicle: saline): 108 % of control | T/C (endpoint: mean survival time, dose: 100.0 mg/kg/injection, schedule: Q01DX009 (ip), vehicle: saline): 102 % of control | T/C (endpoint: mean survival time, dose: 200.0 mg/kg/injection, schedule: Q01DX001 (ip), vehicle: saline): 97 % of control | T/C (endpoint: mean survival time, dose: 200.0 mg/kg/injection, schedule: Q01DX009 (ip), vehicle: saline): 94 % of control | T/C (endpoint: mean survival time, dose: 400.0 mg/kg/injection, schedule: Q01DX001 (ip), vehicle: saline): 100 % of control | T/C (endpoint: mean survival time, dose: 400.0 mg/kg/injection, schedule: Q01DX009 (ip), vehicle: saline): 94 % of control

CN(CCC#N)CCC#N
T/C [12]: 101 % of control | T/C [13]: 96 % of control | T/C (endpoint: mean survival time, dose: 400.0 mg/kg/injection, schedule: Q04DX003 (ip), vehicle: saline): 101 % of control

CCCCN1C(=O)C(=O)N(c2cc(C)c(C)cc2C)C1=O
T/C (endpoint: mean survival time, dose: 12.5 mg/kg/injection, schedule: Q01DX009 (ip), vehicle: saline with Tween-80): 100 % of control | T/C [9]: 96 % of control | T/C [10]: 92 % of control | T/C [11]: 90 % of control

N#CC(C(=O)c1ccccc1)c1ccccc1 (stereo not given)
T/C (endpoint: mean survival time, dose: 75.0 mg/kg/injection, schedule: Q01DX001 (ip), vehicle: other): 100 % of control | T/C (endpoint: mean survival time, dose: 150.0 mg/kg/injection, schedule: Q01DX001 (ip), vehicle: other): 101 % of control | T/C (endpoint: mean survival time, dose: 300.0 mg/kg/injection, schedule: Q01DX001 (ip), vehicle: other): 106 % of control
